Experimental data: patent US8541407B2 (ArQule, Inc., priority 2010, dated 2013)

Target: AKT1 (Homo sapiens (Human), UniProt P31749)
Assay: Inactive Akt Alpha Screen Assay
Conditions: non *labeled: Akt Alpha Screen assay; read-out: AKT1 biochemical assay, IC50
Experimental: AKT1 activity was assayed using the GSK3-derived biotinylated peptide substrate, crosstide (biotin-[…]), and AlphaScreen™ (Amplified Luminescent Proximity Homogeneous Assay) technology. AKT1 activation was achieved by the addition of the activating kinases PDK1 and MAPKAPK2, lipid vesicles, and ATP. The extent of peptide phosphorylation was determined using a phospho-AKT substrate antibody and acceptor beads conjugated to Protein A and donor beads conjugated to streptavidin that bind to the biotin on the peptide. Excitation of the donor beads converted ambient oxygen to excited singlet oxygen which, when in close proximity to acceptor beads, reacted with acceptor beads resulting in signal amplification. […] The plates were incubated for 30 minutes at room temperature, and then stopped in the dark by the addition of 10 μL stop/detection mixture prepared in assay buffer containing EDTA, AlphaScreen™ Streptavidin Donor and Protein A Acceptor beads, and phospho-AKT substrate antibody for final concentrations of 10 mM EDTA, 500 ng/well of both AlphaScreen™ Streptavidin Donor beads and Protein A Acceptor beads, and phospho-AKT substrate antibody at a final dilution of 1:350. Assay plates were incubated for 90 minutes at room temperature in the dark, and the plates were read on a Perkin Elmer Envision Multilabel plate reader (excitation wavelength: […], emission wavelength: 570 nm). […] Envision Instrument Settings: • Instrument: Perkin Elmer Envision • Plate: 96 well • Program Name: • Excitation: Ex Top • Mirror: General Dual—Slot 2 • Excitation Filter: CFP430 Ex.

AKT1, sequence (P31749 whole entry): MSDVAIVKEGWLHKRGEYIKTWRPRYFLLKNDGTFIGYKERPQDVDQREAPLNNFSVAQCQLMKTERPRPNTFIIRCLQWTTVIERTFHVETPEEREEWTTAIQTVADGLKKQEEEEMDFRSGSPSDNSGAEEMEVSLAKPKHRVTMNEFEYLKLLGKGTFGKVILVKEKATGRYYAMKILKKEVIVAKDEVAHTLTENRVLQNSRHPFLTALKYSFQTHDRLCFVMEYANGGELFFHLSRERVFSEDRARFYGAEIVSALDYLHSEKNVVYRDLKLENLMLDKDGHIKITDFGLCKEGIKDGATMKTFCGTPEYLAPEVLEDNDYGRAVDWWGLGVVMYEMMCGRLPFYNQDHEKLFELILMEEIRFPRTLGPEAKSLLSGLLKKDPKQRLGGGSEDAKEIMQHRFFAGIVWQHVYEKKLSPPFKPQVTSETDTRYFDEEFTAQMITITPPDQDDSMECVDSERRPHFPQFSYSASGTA

IC50 [nM] | Compound
1800 | O=C(NCc1ccc(-c2nnc3n2-c2cccnc2Nc2ccccc2-3)cc1)C1CCC1 [Example 100, N-(4-(9H-benzo[f]pyrido[2,3-b][1,2,4]triazolo[4,3-d][1,4]diazepin-3-yl)benzyl)cyclobutanecarboxamide]
140 | O=S(=O)(NCc1ccc(-c2nnc3n2-c2cccnc2Nc2ccccc2-3)cc1)c1ccccc1 [Example 101, N-(4-(9H-benzo[f]pyrido[2,3-b][1,2,4]triazolo[4,3-d][1,4]diazepin-3-yl)benzyl)benzenesulfonamide]
800 | COc1ccc(S(=O)(=O)NCc2ccc(-c3nnc4n3-c3cccnc3Nc3ccccc3-4)cc2)cc1 [Example 102, N-(4-(9H-benzo[f]pyrido[2,3-b][1,2,4]triazolo[4,3-d][1,4]diazepin-3-yl)benzyl)-4-methoxybenzenesulfonamide]
240 | Cn1cnc(S(=O)(=O)NCc2ccc(-c3nnc4n3-c3cccnc3Nc3ccccc3-4)cc2)c1 [Example 103, N-(4-(9H-benzo[f]pyrido[2,3-b][1,2,4]triazolo[4,3-d][1,4]diazepin-3-yl)benzyl)-1-methyl-1H-imidazole-4-sulfonamide]
120 | Cn1ccc(S(=O)(=O)NCc2ccc(-c3nnc4n3-c3cccnc3Nc3ccccc3-4)cc2)n1 [Example 104, N-(4-(9H-benzo[f]pyrido[2,3-b][1,2,4]triazolo[4,3-d][1,4]diazepin-3-yl)benzyl)-1-methyl-1H-pyrazole-3-sulfonamide]
220 | O=S(=O)(NCc1ccc(-c2nnc3n2-c2cccnc2Nc2ccccc2-3)cc1)c1cccnc1 [Example 105, N-(4-(9H-benzo[f]pyrido[2,3-b][1,2,4]triazolo[4,3-d][1,4]diazepin-3-yl)benzyl)pyridine-3-sulfonamide]
6600 | O=S(=O)(Nc1ccc(-c2nnc3n2-c2cccnc2Nc2ccccc2-3)cc1)c1ccccc1 [Example 106, N-(4-(9H-benzo[f]pyrido[2,3-b][1,2,4]triazolo[4,3-d][1,4]diazepin-3-yl)phenyl)benzenesulfonamide]
2900 | O=C(NCc1ccc(-c2nnc3n2-c2cccnc2Nc2ccccc2-3)cc1)Nc1ccccc1 [Example 107, 1-(4-(9H-benzo[f]pyrido[2,3-b][1,2,4]triazolo[4,3-d][1,4]diazepin-3-yl)benzyl)-3-phenylurea]
5800 | O=S(=O)(NCCc1ccc(-c2nnc3n2-c2cccnc2Nc2ccccc2-3)cc1)c1ccccc1 [Example 108, N-(4-(9H-benzo[f]pyrido[2,3-b][1,2,4]triazolo[4,3-d][1,4]diazepin-3-yl)phenethyl)benzenesulfonamide]
9100 | COc1ccc(S(=O)(=O)NCCc2ccc(-c3nnc4n3-c3cccnc3Nc3ccccc3-4)cc2)cc1 [Example 109, N-(4-(9H-benzo[f]pyrido[2,3-b][1,2,4]triazolo[4,3-d][1,4]diazepin-3-yl)phenethyl)-4-methoxybenzenesulfonamide]
630 | O=C(NCCc1ccc(-c2nnc3n2-c2cccnc2Nc2ccccc2-3)cc1)c1ccccc1 [Example 111, N-(4-(9H-benzo[f]pyrido[2,3-b][1,2,4]triazolo[4,3-d][1,4]diazepin-3-yl)phenethyl)benzamide]
170 | O=S(=O)(NCc1ccc(-c2nnc3n2-c2cccnc2Nc2ccccc2-3)cc1)c1ccccc1F [Example 112, N-(4-(9H-benzo[f]pyrido[2,3-b][1,2,4]triazolo[4,3-d][1,4]diazepin-3-yl)benzyl)-2-fluorobenzenesulfonamide]
400 | O=S(=O)(NCc1ccc(-c2nnc3n2-c2cccnc2Nc2ccccc2-3)cc1)c1cccc(F)c1 [Example 113, N-(4-(9H-benzo[f]pyrido[2,3-b][1,2,4]triazolo[4,3-d][1,4]diazepin-3-yl)benzyl)-3-fluorobenzenesulfonamide]
220 | O=S(=O)(NCc1ccc(-c2nnc3n2-c2cccnc2Nc2ccccc2-3)cc1)c1ccc(Cl)cc1 [Example 119, N-(4-(9H-benzo[f]pyrido[2,3-b][1,2,4]triazolo[4,3-d][1,4]diazepin-3-yl)benzyl)-4-chlorobenzenesulfonamide]

Continued, compound first:

Compound | IC50 [nM]
CCN(CC)C(=O)C1CCCN(Cc2ccc(-c3nnc4n3-c3cccnc3Nc3ccccc3-4)cc2)C1 (centres unmarked) [Example 81, 1-(4-(9H-benzo[f]pyrido[2,3-b][1,2,4]triazolo[4,3-d][1,4]diazepin-3-yl)benzyl)-N,N-diethylpiperidine-3-carboxamide] | 4800
c1ccc(CN2CCN(Cc3ccc(-c4nnc5n4-c4cccnc4Nc4ccccc4-5)cc3)CC2)cc1 [Example 82, 3-(4-((4-benzylpiperazin-1-yl)methyl)phenyl)-9H-benzo[f]pyrido[2,3-b][1,2,4]triazolo[4,3-d][1,4]diazepine] | 5300
OC1CCCN(Cc2ccc(-c3nnc4n3-c3cccnc3Nc3ccccc3-4)cc2)C1 (centres unmarked) [Example 83, 1-(4-(9H-benzo[f]pyrido[2,3-b][1,2,4]triazolo[4,3-d][1,4]diazepin-3-yl)benzyl)piperidin-3-ol] | 5700
c1ccc2c(c1)Nc1ncccc1-n1c(-c3ccc(CN4CCOCC4)cc3)nnc1-2 [Example 84, 4-(4-(9H-benzo[f]pyrido[2,3-b][1,2,4]triazolo[4,3-d][1,4]diazepin-3-yl)benzyl)morpholine] | 1600
CC(C)CN(C)Cc1ccc(-c2nnc3n2-c2cccnc2Nc2ccccc2-3)cc1 [Example 85, N-(4-(9H-benzo[f]pyrido[2,3-b][1,2,4]triazolo[4,3-d][1,4]diazepin-3-yl)benzyl)-N,2-dimethylpropan-1-amine] | 7100
CC(=O)NC1CCN(Cc2ccc(-c3nnc4n3-c3cccnc3Nc3ccccc3-4)cc2)C1 (centres unmarked) [Example 86, N-(1-(4-(9H-benzo[f]pyrido[2,3-b][1,2,4]triazolo[4,3-d][1,4]diazepin-3-yl)benzyl)pyrrolidin-3-yl)acetamide] | 3400
CCCNCc1ccc(-c2nnc3n2-c2cccnc2Nc2ccccc2-3)cc1 [Example 87, N-(4-(9H-benzo[f]pyrido[2,3-b][1,2,4]triazolo[4,3-d][1,4]diazepin-3-yl)benzyl)propan-1-amine] | 5800
CN1CCC(N(C)Cc2ccc(-c3nnc4n3-c3cccnc3Nc3ccccc3-4)cc2)CC1 [Example 88, N-(4-(9H-benzo[f]pyrido[2,3-b][1,2,4]triazolo[4,3-d][1,4]diazepin-3-yl)benzyl)-N,1-dimethylpiperidin-4-amine] | 5500
CCOC(=O)N1CCC(NCc2ccc(-c3nnc4n3-c3cccnc3Nc3ccccc3-4)cc2)CC1 [Example 89, ethyl 4-((4-(9H-benzo[f]pyrido[2,3-b][1,2,4]triazolo[4,3-d][1,4]diazepin-3-yl)benzyl)amino)piperidine-1-carboxylate] | 2300
CCCN(C)Cc1ccc(-c2nnc3n2-c2cccnc2Nc2ccccc2-3)cc1 [Example 90, N-(4-(9H-benzo[f]pyrido[2,3-b][1,2,4]triazolo[4,3-d][1,4]diazepin-3-yl)benzyl)-N-methylpropan-1-amine] | 2500
Cc1ccc(CN2CCN(Cc3ccc(-c4nnc5n4-c4cccnc4Nc4ccccc4-5)cc3)CC2)cc1 [Example 91, 3-(4-((4-(4-methylbenzyl)piperazin-1-yl)methyl)phenyl)-9H-benzo[f]pyrido[2,3-b][1,2,4]triazolo[4,3-d][1,4]diazepine] | 2800
O=C(c1ccco1)N1CCN(Cc2ccc(-c3nnc4n3-c3cccnc3Nc3ccccc3-4)cc2)CC1 [Example 92, (4-(4-(9H-benzo[f]pyrido[2,3-b][1,2,4]triazolo[4,3-d][1,4]diazepin-3-yl)benzyl)piperazin-1-yl)(furan-2-yl)methanone] | 1400
c1ccc2c(c1)Nc1ncccc1-n1c(-c3ccc(CNCC4CC4)cc3)nnc1-2 [Example 93, N-(4-(9H-benzo[f]pyrido[2,3-b][1,2,4]triazolo[4,3-d][1,4]diazepin-3-yl)benzyl)-1-cyclopropylmethanamine] | 6700
c1ccc(CCN2CCN(Cc3ccc(-c4nnc5n4-c4cccnc4Nc4ccccc4-5)cc3)CC2)cc1 [Example 94, 3-(4-((4-phenethylpiperazin-1-yl)methyl)phenyl)-9H-benzo[f]pyrido[2,3-b][1,2,4]triazolo[4,3-d][1,4]diazepine] | 5800
O=C(NCc1ccc(-c2nnc3n2-c2cccnc2Nc2ccccc2-3)cc1)c1ccc(F)cc1 [Example 95, N-(4-(9H-benzo[f]pyrido[2,3-b][1,2,4]triazolo[4,3-d][1,4]diazepin-3-yl)benzyl)-4-fluorobenzamide] | 300
O=C(NCc1ccc(-c2nnc3n2-c2cccnc2Nc2ccccc2-3)cc1)c1cccnc1 [Example 96, N-(4-(9H-benzo[f]pyrido[2,3-b][1,2,4]triazolo[4,3-d][1,4]diazepin-3-yl)benzyl)nicotinamide] | 200
O=C(NCc1ccc(-c2nnc3n2-c2cccnc2Nc2ccccc2-3)cc1)c1ccco1 [Example 97, N-(4-(9H-benzo[f]pyrido[2,3-b][1,2,4]triazolo[4,3-d][1,4]diazepin-3-yl)benzyl)furan-2-carboxamide] | 1100
O=C(NCc1ccc(-c2nnc3n2-c2cccnc2Nc2ccccc2-3)cc1)c1ccccc1 [Example 99, N-(4-(9H-benzo[f]pyrido[2,3-b][1,2,4]triazolo[4,3-d][1,4]diazepin-3-yl)benzyl)benzamide] | 200
